Laboratory results as given in patent US20230391781A1, “MALT1 MODULATORS AND USES THEREOF” (Rheos Medicines, Inc., priority 2020, published 2023).
Counter-ions that a name gives are not always drawn. Like-named read-outs stand apart in the source and are kept apart here.

Assays:
full length MALT1 = full length MALT1 (Homo sapiens (Human), UniProt Q9UDY8); experiment: MALT1 Biochemical Assay; details: 15 nM enzyme, 30 μM peptide substrate Ac-Leu-Arg-Ser-Arg-Rh110-dPro, 30 min pre-incubation, 60 min reaction; mean value if tested more than once
Method: Inhibitor potency was evaluated by measuring enzymatic activity of full length MALT1 at varying concentrations of compound. The enzymatic assay consists of a single substrate reaction that monitors the release of a fluorescent dye upon cleavage of the peptide substrate. […] The assay buffer consists of 50 mM Hepes, pH 7.5, 0.8 M sodium citrate, 1 mM DTT, 0.004% tween-20, and 0.005% bovine serum albumin (BSA). […] The reaction was quenched after 60 minutes with the addition of iodoacetate at a final concentration of 10 mM. Total fluorescence was measured using an Envision (PerkinElmer) with fluorescence excitation at 485 nm and emission at […].
For potency determination, 1 μL of serially diluted compound (in 100% DMSO) was pre-incubated with 40 μL of enzyme for 30 minutes. The reaction was initiated with the addition of 10 μL of peptide substrate. The relative fluorescence units were transformed to percent inhibition by using 0% and 100% inhibition controls as reference. […] IC50 values were calculated by fitting the concentration-response curves to a four-parameter logistic equation in GraphPad Prism.

[1] = system: IL-2 in Jurkat (ATCC, clone E6.1) cells stimulated with anti-CD3/28/2; experiment: Jurkat IL-2 Assay; type: cell-based; details: Homo sapiens
Method: Inhibition was determined in a cell-based assay using Jurkat (ATCC, clone E6.1), an immortalized T-cell line, exposed to a dose response of compound and assessed for viability, and Il-2 inhibition by ELISA. Cells were cultured in RPMI/10% FBS (Invitrogen 11875093, Atlanta Biologicals S12450H), maintained below 3E6/mL and only used in assays while below passage 25. Compounds were stamped by ECHO onto 384w plates (PerkinElmer Culturplate, 6007680). The cells were plated in fresh media on top of compound and incubated for 30 minutes before stimulation with soluble anti-CD3/28/2 (Stemcell, 10970) for 24 hours. Supernatant was collected and assessed for Il-2 (MSD, 384w, L21SA-1). To assess viability of cells treated with compound, cells were lysed with CTG reagent (Promega, G7570), and measured by luminometer. […] IC50s calculated using 4-parameter fit in GraphPad Prism.
In this table, “A” indicates IC50 of less than 0.1 μM; “B” indicates IC50 from 0.1 μM up to 1 μM; and “C” indicates IC50 of greater than 1 μM. “N/A” indicates not tested. For a compound that was tested in more than one experiment, the result shown represents the mean value.

[2] = IL-2 inhibition, Jurkat cells, 30 min compound then anti-CD3/28/2 stimulation for 24 hours, mean value if tested more than once, read-out: IC50

Sequence of full length MALT1 (Q9UDY8 whole entry): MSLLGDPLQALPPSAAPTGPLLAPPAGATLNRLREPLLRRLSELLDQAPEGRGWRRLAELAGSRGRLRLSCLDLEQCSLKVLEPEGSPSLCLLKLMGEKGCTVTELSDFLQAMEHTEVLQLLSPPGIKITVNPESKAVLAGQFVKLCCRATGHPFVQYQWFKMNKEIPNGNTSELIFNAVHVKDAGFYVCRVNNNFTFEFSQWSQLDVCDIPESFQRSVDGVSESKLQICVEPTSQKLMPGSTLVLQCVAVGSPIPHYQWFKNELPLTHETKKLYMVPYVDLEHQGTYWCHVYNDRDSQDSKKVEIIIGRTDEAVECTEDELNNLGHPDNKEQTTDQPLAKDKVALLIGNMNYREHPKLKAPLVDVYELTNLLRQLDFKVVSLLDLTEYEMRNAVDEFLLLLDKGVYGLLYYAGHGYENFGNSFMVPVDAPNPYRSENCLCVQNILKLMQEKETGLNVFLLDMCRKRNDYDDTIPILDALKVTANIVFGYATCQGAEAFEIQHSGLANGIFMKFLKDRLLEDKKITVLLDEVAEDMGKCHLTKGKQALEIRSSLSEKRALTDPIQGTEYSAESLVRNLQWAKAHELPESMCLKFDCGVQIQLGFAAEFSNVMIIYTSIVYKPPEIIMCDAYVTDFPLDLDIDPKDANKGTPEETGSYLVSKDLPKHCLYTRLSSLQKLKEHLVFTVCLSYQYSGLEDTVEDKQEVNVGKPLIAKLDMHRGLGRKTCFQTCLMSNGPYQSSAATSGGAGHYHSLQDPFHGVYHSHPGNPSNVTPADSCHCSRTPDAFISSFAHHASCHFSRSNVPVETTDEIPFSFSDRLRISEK

| SMILES | IC50 (full length MALT1) [nM] | IC50 [1, 2] [nM] | IC50 ([1]; Jurkat) [nM] |
| --- | --- | --- | --- |
| CO[C@@H](C)c1c(Nc2ccc(C(C)N(C)C(C)=O)cc2)cnc2nc(Cl)nn12 (stereo partly drawn) [Compound 1.24, N-{1-[4-({2-chloro-7-[(1S)-1-methoxyethyl]-[1,2,4]triazolo[1,5-a]pyrimidin-6-yl}amino)phenyl]ethyl}-N-methylacetamide] | > 1000 | > 1000 | – |
| CO[C@@H](C)c1c(Nc2ccc(C(N(C)C(C)=O)C(F)(F)F)cc2)cnc2nc(Cl)nn12 (stereo partly drawn) [Compound 1.25, N-{1-[4-({2-chloro-7-[(1S)-1-methoxyethyl]-[1,2,4]triazolo[1,5-a]pyrimidin-6-yl}amino)phenyl]-2,2,2-trifluoroethyl}-N-methylacetamide] | 100 to 1000 | > 1000 | – |
| CO[C@@H](C)c1c(Nc2ccc([C@H](N(C)C(=O)C3CCCN(C(=O)OC(C)(C)C)C3)C(F)(F)F)cc2)cnc2nc(Cl)nn12 (stereo partly drawn) [Compound 1.11, Tert-butyl 3-{[(1S)-1-[4-({2-chloro-7-[(1S)-1-methoxyethyl]-[1,2,4]triazolo[1,5-a]pyrimidin-6-yl}amino)phenyl]-2,2,2-trifluoroethyl](methyl)carbamoyl}piperidine-1-carboxylate] | 100 to 1000 | > 1000 | – |
| CO[C@@H](C)c1c(Nc2ccc(C(C)N(C)C(=O)C3CCCCC3)cc2)cnc2nc(Cl)nn12 (stereo partly drawn) [Compound 1.21, N-{1-[4-({2-chloro-7-[(1S)-1-methoxyethyl]-[1,2,4]triazolo[1,5-a]pyrimidin-6-yl}amino)phenyl]ethyl}-N-methylcyclohexanecarboxamide] | > 1000 | > 1000 | – |
| CO[C@@H](C)c1c(Nc2ccc([C@H](N(C)C(=O)C3CCNCC3)C(F)(F)F)cc2)cnc2nc(Cl)nn12 [Compound 2.1, N—((S)-1-(4-((2-chloro-7-((S)-1-methoxyethyl)-[1,2,4]triazolo[1,5-a]pyrimidin-6-yl)amino)phenyl)-2,2,2-trifluoroethyl)-N-methylpiperidine-4-carboxamide trifluoroacetate] | 100 to 1000 | – | 100 to 1000 |
| CO[C@@H](C)c1c(Nc2ccc([C@H](N(C)C(=O)C3CCC(CNC(=O)OC(C)(C)C)CC3)C(F)(F)F)cc2)cnc2nc(Cl)nn12 (stereo partly drawn) [Compound 1.13, tert-butyl N-[(4-{[(1S)-1-[4-({2-chloro-7-[(1S)-1-methoxyethyl]-[1,2,4]triazolo[1,5-a]pyrimidin-6-yl}amino)phenyl]-2,2,2-trifluoroethyl](methyl)carbamoyl}cyclohexyl)methyl]carbamate] | 100 to 1000 | 100 to 1000 | – |
| CO[C@@H](C)c1c(Nc2ccc([C@H](N(C)C(=O)[C@H]3C[C@H](C#N)C3)C(F)(F)F)cc2)cnc2nc(Cl)nn12 [Compound 1.9, (1r,3S)—N—((S)-1-(4-((2-chloro-7-((S)-1-methoxyethyl)-[1,2,4]triazolo[1,5-a]pyrimidin-6-yl)amino)phenyl)-2,2,2-trifluoroethyl)-3-cyano-N-methylcyclobutane-1-carboxamide] | 100 to 1000 | 100 to 1000 | – |
| CO[C@@H](C)c1c(Nc2ccc([C@H](N(C)C(=O)C3CCCNC3)C(F)(F)F)cc2)cnc2nc(Cl)nn12 (stereo partly drawn) [Compound 2.2, N-[(1S)-1-[4-({2-chloro-7-[(1S)-1-methoxyethyl]-[1,2,4]triazolo[1,5-a]pyrimidin-6-yl}amino)phenyl]-2,2,2-trifluoroethyl]-N-methylpiperidine-3-carboxamide] | 100 to 1000 | > 1000 | – |

Second part, led by results:

| IC50 (full length MALT1) [nM] | IC50 [1, 2] [nM] | SMILES | IC50 ([1]; Jurkat) [nM] |
| --- | --- | --- | --- |
| < 100 | 100 to 1000 | CNC(=O)N1CCC(C(=O)N(C)[C@@H](c2ccc(Nc3cnc4nc(Cl)nn4c3[C@H](C)OC)cc2)C(F)(F)F)C1 (stereo partly drawn) [Compound 3.9, N3-[(1S)-1-[4-({2-chloro-7-[(1S)-1-methoxyethyl]-[1,2,4]triazolo[1,5-a]pyrimidin-6-yl}amino)phenyl]-2,2,2-trifluoroethyl]-N1,N3-dimethylpyrrolidine-1,3-dicarboxamide] | – |
| < 100 | 100 to 1000 | CC(C)c1c(Nc2ccc([C@H](N(C)C(=O)[C@H]3CC[C@H](C(=O)O)CC3)C(F)(F)F)cc2)cnc2nc(Cl)nn12 [Compound 7.2, (1S,4r)-4-(((S)-1-(4-((2-chloro-7-isopropyl-[1,2,4]triazolo[1,5-a]pyrimidin-6-yl)amino)phenyl)-2,2,2-trifluoroethyl)(methyl)carbamoyl)cyclohexane-1-carboxylic acid ammonia salt] | – |
| 100 to 1000 | 100 to 1000 | CO[C@@H](C)c1c(Nc2ccc([C@H](N(C)C(=O)C3CCCN(C(=O)C4CC4)C3)C(F)(F)F)cc2)cnc2nc(Cl)nn12 (stereo partly drawn) [Compound 4.2, N-[(1S)-1-[4-({2-chloro-7-[(1S)-1-methoxyethyl]-[1,2,4]triazolo[1,5-a]pyrimidin-6-yl}amino)phenyl]-2,2,2-trifluoroethyl]-1-cyclopropanecarbonyl-N-methylpiperidine-3-carboxamide] | – |
| < 100 | 100 to 1000 | COC(=O)N1CCC(C(=O)N(C)[C@@H](c2ccc(Nc3cnc4nc(Cl)nn4c3[C@H](C)OC)cc2)C(F)(F)F)CC1 [Compound 3.3, methyl 4-{[(1S)-1-[4-({2-chloro-7-[(1S)-1-methoxyethyl]-[1,2,4]triazolo[1,5-a]pyrimidin-6-yl}amino)phenyl]-2,2,2-trifluoroethyl](methyl)carbamoyl}piperidine-1-carboxylate] | – |
| 100 to 1000 | > 1000 | CO[C@@H](C)c1c(Nc2ccc([C@H](N(C)C(=O)C3CCCN(C)C3)C(F)(F)F)cc2)cnc2nc(Cl)nn12 (stereo partly drawn) [Compound 5.2, N—((S)-1-(4-((2-chloro-7-((S)-1-methoxyethyl)-[1,2,4]triazolo[1,5-a]pyrimidin-6-yl)amino)phenyl)-2,2,2-trifluoroethyl)-N,1-dimethylpiperidine-3-carboxamide] | – |
